In US4863748A, “Dietary products and uses comprising methylsulfonylmethane” (priority 1986, dated 1989):

What was measured:
coat = assay: Coat quality of guinea pigs (Example 8); assay type: in vivo; conditions: 2 wt. % in water, 28 days
Source text: Ten 4-week old guinea pigs were housed in individual metal cages in a standard temperature room with a 12-hour light/dark cycle and acclimated over a 5-day period of feeding Purina guinea pig chow with water ad lib.
On day six, five animals were marked on the belly with red and the other five with blue water-insoluble ink. The marks were not visible when the animals were observed from above. Each animal after marking was returned to its cage and a corresponding red or blue tape affixed to the animal's watering bottle. The red marked bottles were maintained with tap water and the blue marked bottles were filled with tap water containing 2 wt. % methylsulfonylmethane. During a 28 day period, the animals were fed and allowed access to their water or water+2% methylsulfonylmethane, respectively, ad lib. On day 28, the animals were placed in common confinement on a well lighted table. Four individuals, totally unfamiliar with the test and its purpose were asked to evaluate the coat of each animal. Animals at each evaluation were removed by the evaluator and placed into one of two groups based on better or poorer quality of the animal's coat without seeing the color on the animal's belly.

weight gain = assay: Diet supplement in animals (Example 18); assay type: in vivo, laboratory animals, including dogs
Source text: A possible explanation for this is that any minor allergic response to the diet was neutralized by the methylsulfonylmethane.

[1] = system: nutritional secondary hyperparathyroidism with obvious epiphysitis; assay: Nutritional secondary hyperparathyroidism with epiphysitis in horses (Example 3); assay type: in vivo, horse; conditions: 12 grams twice daily in feed; conventional treatment 60-90 days minimum
Source text: Calcium/phosphorous balance is critical in the horse, where these elements comprise roughly 70% of the mineral content of the horse's body. Calcium deficiency, or the reverse, viz., phosphorous excess, is undesirable. Phosphorous excess in feed will decrease intestinal absorption, resulting in lowered blood plasma calcium. One result is a stimulation in the dietary deficiency condition called nutritional secondary hyperparathyroidism. Calcium denied for bone development results in an enlargement of structurally defective fibrous tissue. In horse leg bones, it is called epiphysitis when stress inflammation is presented.
Two colts and four fillies were studied, all diagnosed as having nutritional secondary hyperparathyroidism with obvious epiphysitis. Each was provided with 12 grams of methylsulfonylmethane twice daily in a bran/molasses blend intermixed with their standard dry feed prior to feeding. The supplemented feed was well accepted. All signs and symptoms of this nutritional deficiency disease was corrected in from seven to ten days. Conventional treatment for correcting dietary calcium deficiency requires a minimum of 60-90 days before relief from inflammation is obtained. Except for the added methylsulfonylmethane, there was no change in the diet of these […] horses. The added dietary factor corrected this easily recognizable dietary deficiency in all of the horses.

acute pain = assay: Acute pain (Example 21); assay type: in vivo, human; conditions: single 1.5 gm dose; two 1 gm doses at 4-hour intervals, oral
lymphomas = conditions: oral, cited from earlier work
Enterobius (pin worms) = assay: Pin worm (Enterobius) infection in laboratory mice (Examples 19 and 28(c)); assay type: in vivo; conditions: 2% by wt. in feed and drinking water
Source text: (§1) Laboratory mice determined by fecal cast examination to have pin worms were given commercial feed and drinking water, ad lib, both of which contained 2% by wt. methylsulfonylmethane. […] The blood level of methylsulfonylmethane in one animal examined exceeded 30 ppm.
(§2) Laboratory mice determined by fecal cast examination to have pin worms were given 2% by wt. of methylsulfonylmethane in both their commercial feed and drinking water, ad lib.

[2] = as above; assay type: in vivo; conditions: mouse, blood, po; one animal examined; 2% by wt. in feed and drinking water; read-out: blood level of methylsulfonylmethane
Source text: as §1, §2

[3] = system: urinary taurine secretion; conditions: man; cited from earlier work
anticholinesterases = assay: Antagonism of lethal effects of anticholinesterases; conditions: as stated in Example 19
Escherichia coli = assay: In vitro antibacterial action; assay type: cell-based
Source text: (§3) While not as potent or toxic to microbial populations as specific drug agents, by reason of its extremely low host systemic toxicity, methylsulfonylmethane contrasts sharply with present antiinfective therapeutants and methodology. It is doubtful if chemical resistance will develop with infective agents controlled by high, but safe, systemic levels of methylsulfonylmethane.

Salmonello typhimurium = assay: In vitro antibacterial action; assay type: cell-based
Source text: as §3

Staphylococcus aureus = assay: In vitro antibacterial action; assay type: cell-based
Source text: as §3

Leuconostoc citrovorum = assay: In vitro antibacterial action; assay type: cell-based
Source text: as §3

[4] = system: Streptococcus thermophilus; assay: In vitro antibacterial action; assay type: cell-based
Source text: as §3

[5] = system: gum inflammation and oral mucosa; assay: Oral hygiene (Example 11); assay type: in vivo, human
[6] = system: subjects in apparent good health; assay: Maintenance of good health (Example 12); assay type: in vivo, human
Experimental: 14 subjects of both sexes, all in apparent good health, ages 33-59, were given oral methylsulfonylmethane in amounts ranging from 250 to 500 mg daily which maintained their blood levels above 1 ppm. These individuals were continued on methylsulfonylmethane, taken as a solution in orange juice for periods of from about seven months to over one year.

[7] = system: t-lymphocyte dependent and t-lymphocyte independent immune responses; assay: Humoral immune responses in mice (Example 37); assay type: in vivo, balb/c strain mice; conditions: 3% by wt. in water
Experimental: Laboratory mice genetically predisposed to lymphoma development were selected for this test. Humoral immunity participation was measured as was the effect of methylsulfonylmethane on an animal's life span. One set of 12 mice were maintained as controls. The treated (T) group received identical treatment except for their water given ad lib, which contained 3% by wt. of methylsulfonylmethane in solution.
By month 4 of this test, all controls were dead, due to lymphoma development. […] These normal balb/c strain mice of group T were tested for t-lymphocyte dependent (t-d) and t-lymphocyte independent (t-i) immune responses. […] Based on these preliminary results, at high enough daily rates of ingestion, methylsulfonylmethane stimulates humoral immunity thereby providing protection to otherwise lethal spontaneous mouse lymphomas.

arthritic patients = assay: Chemical profile of arthritic patients; assay type: in vivo, human; conditions: drop from 600+
Source text: 8. Improving the chemical profile of arthritic patients, e.g., providing relief from pain and stiffness, reduced swelling and inflammation, coupled with a return of blood chemistry towards normalcy, for example, a RH titer drop from 600+to 300 or lower.

[8] = about 60 and about 500 mg/day/kg body wt.
[9] = 250 to 500 mg daily, seven months to over one year

CS(C)(=O)=O [methylsulfonylmethane]
animals with blue belly mark selected as superior by fourth evaluator (coat): three
evaluators selecting the five treated animals as having superior coats (coat): Three of the four evaluators
fur quality (weight gain; [8]): improved
nail growth (weight gain; [8]): somewhat faster
weight gain of immature animals vs controls (weight gain; [8]): gained weight at a greater rate
weight increases with adult animals (weight gain; comparable feeding experiments): not seen
time to correction of all signs and symptoms [1]: seven to ten
relief of acute mid-back pain (calculi obstructed ureter) and lower abdomen pain spasms (acute pain): proven useful in relieving acute pain
development of lymphomas (lymphomas; compared with control): significant delay
tumor incidence (lymphomas; compared with control): decreased
joint involvement (lymphomas; only grossly examined): marked reduction
titer of primary IgM and secondary IgG (lymphomas): increased titer
worms and eggs in fecal cast after 17 days (Enterobius (pin worms)): free of worms and eggs
concentration at 408 h [2]: > 30000 ng/mL
urinary taurine secretion produced by aromatic hydrocarbons [3]: enhances
antagonism of anticholinesterases in vivo (anticholinesterases): antagonizes
in vitro antibacterial action (Escherichia coli): weak
in vitro antibacterial action (Salmonello typhimurium): weak
in vitro antibacterial action (Staphylococcus aureus): weak
in vitro antibacterial action (Leuconostoc citrovorum): weak
in vitro antibacterial action [4]: weak
sense of taste ([5]; critical observers): improved
sense of smell ([5]; gargle, two subjects with restricted sense of smell): sharpening of this sense
bad breath associated with smoking or food ([5]; in water, saline solution or oral hygiene product): reduced or eliminated
viscosity of the mucous ([5]; subjects with viscid mucoid nasopharyngeal discharge): reduction in the viscosity of the mucous
blood level ([6]; 250 to 500 mg daily oral): above 1 ppm
illness during testing [6, 9]: None of the 14 became ill
reported well-being [6, 9]: feeling better and stronger with increased endurance
primary IgM and secondary IgG responses to sheep erythrocytes (SRBC) [7]: significantly enhancement
tnp-ficoll response [7]: significant suppression
RH titer (arthritic patients): ≤ 300
